Molecules are shown by their SMILES.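 Method: 48-hour compound exposure of cells in 96-well plates, five concentrations, linear interpolation of endpoints. Here, GI50 denotes the concentration required for 50% inhibition of growth.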 The source made the active and inactive calls. Cut-off read from the data, not from the text of the source: active = GI50 up to about 1.1 µM and inactive = higher. Bounds are passed on as bounds.

Some test systems named below: SK-MEL-5; HL-60; RXF 393; EKVX; NCI/ADR-RES; PC-3; MOLT-4; CAKI-1; K562; Hs-578T; SK-MEL-28; RPMI-8226; CCRF-CEM; NCI-H226; SF-295; SNB-75; SK-MEL-2; UACC-257; HOP-62.
Common to all, as to assay: DTP human tumour cell line panel, 48 h

On to `C[C@]12CCC(N3CCCC3)CC1=CC[C@@H]1[C@@H]2CC[C@]2(C)C(O)[C@H](n3ccnc3)C[C@@H]12` (stereo not given in full), for which the GI50 (in general, the concentration at which growth is held to half of that of the control) in the assay with SK-MEL-5 is 53 µM (inactive); in the assay on HL-60, 5.58 µM (inactive); with RXF 393 it was 17.4 µM (inactive); with EKVX, > 100 µM (inactive); in the assay with NCI/ADR-RES, > 100 µM (inactive); in the assay on PC-3, 36.7 µM (inactive). Besides, the GI50 is 14.2 µM (inactive) in the assay with MOLT-4; > 100 µM (inactive) in the assay with CAKI-1; 27.2 µM (inactive) with K562; > 10 µM (inactive) in the assay with Hs-578T; 26.1 µM (inactive) with SK-MEL-28; 30.8 µM (inactive) with RPMI-8226. Further, the GI50 was 15.7 µM (inactive) with CCRF-CEM; > 100 µM (inactive) with NCI-H226; 35.2 µM (inactive) in the assay with SF-295; > 10 µM (inactive) in the assay on SNB-75; 41.9 µM (inactive) with SK-MEL-2; 38.6 µM (inactive) with UACC-257.

For the molecule `O=C1OC(OC/C(Br)=C(/Br)COC2OC(=O)C(Cl)=C2Cl)C(Cl)=C1Cl` (stereo not given), the GI50 in the assay on SK-MEL-5 is 13.4 µM (inactive); with HL-60, 1.71 µM (inactive); in the assay with RXF 393, 5.09 µM (inactive); in the assay with EKVX it was 16.1 µM (inactive); in the assay with NCI/ADR-RES it was 6.7 µM (inactive); with PC-3, 15.8 µM (inactive). Also, the GI50 was 11.7 µM (inactive) with HOP-62; 2.26 µM (inactive) in the assay with MOLT-4; 3.15 µM (inactive) in the assay with CAKI-1; 2.07 µM (inactive) in the assay on K562; 13 µM (inactive) with Hs-578T; 8.51 µM (inactive) in the assay with SK-MEL-28. Besides, the GI50 in the assay on RPMI-8226 was 1.68 µM (inactive); with CCRF-CEM, 1.71 µM (inactive); in the assay with NCI-H226, 26.2 µM (inactive); in the assay on SF-295 it was 16.1 µM (inactive); in the assay on SNB-75 it was 18.7 µM (inactive); with SK-MEL-2 it was 26.2 µM (inactive). Further, the GI50 in the assay with UACC-257 was 12.1 µM (inactive).

For `C=C[C@]1(O)CCC[C@]2(C)C(=O)CCC12C` (stereo not given in full), the GI50 in the assay on SK-MEL-5, in the assay on HL-60, in the assay with RXF 393, in the assay with EKVX, in the assay with NCI/ADR-RES and in the assay with PC-3 was > 100 µM (inactive) throughout. Further, the GI50 with HOP-62, in the assay with MOLT-4, in the assay with K562, in the assay on Hs-578T, with SK-MEL-28 and in the assay with RPMI-8226 was > 100 µM (inactive) each time. For the same molecule, the GI50 in the assay on NCI-H226, in the assay with SF-295, in the assay with SK-MEL-2 and with UACC-257 was > 100 µM (inactive) in each case.

As to `O=c1cc(-c2ccccc2F)[nH]c2cc3c(cc12)OCO3`, the GI50 was 0.0211 µM (active) in the assay with SK-MEL-5; 0.0454 µM (active) in the assay with HL-60; 0.0813 µM (active) with RXF 393; 0.035 µM (active) in the assay on NCI/ADR-RES; 0.0495 µM (active) with PC-3; 0.19 µM (active) with HOP-62. Moreover, the GI50 in the assay with MOLT-4 was 0.245 µM (active); with K562 it was 0.0628 µM (active); in the assay on Hs-578T it was 0.0728 µM (active); in the assay with SK-MEL-28, > 32.9 µM (inactive); in the assay with RPMI-8226 it was 0.0631 µM (active); with CCRF-CEM, 0.129 µM (active). In addition, the GI50 in the assay with NCI-H226 is 0.184 µM (active); with SF-295, 0.0993 µM (active); in the assay with SNB-75, 0.247 µM (active); with SK-MEL-2, 0.1 µM (active); with UACC-257 it was 1.2 µM (inactive).
